Data published in US5536723A, “S-nitroso derivatives of hydrazinoacetic acids, 1-[(acylthio and (mercapto)-1-oxoalkyl]-1,2,34-Tetrahydroquinoline-2-carboxylic acids and alanyl prolines and isoquinolines” (Brigham & Women's Hospital, priority 1994, dated 1996).

Tests used:
[1] = system: bovine femoral artery, contraction to angiotensin I; assay: contraction of the bovine femoral artery to angiotensin I; details: for Contraction to Agonist: Angiotensin I, Sar 0 (control)
Method: The data are expressed as a percentage of the maximal response to norepinephrine (10^-6 M) and are shown as mean ±SEM in each group (n=7).
(§1) Blood Vessel Preparation. Bovine coronary or femoral arteries were obtained from an abattoir immediately after sacrifice of two- to four-week-old calves. Immediately after removal, the vessel was placed in ice-cold physiologic salt solution (PSS) containing 118.3 mM NaCl, 4.7 mM KCl, 2.5 mM CaCl2, 1.2 mM MgSO4, 1.2 mM KH2 PO4, 25.0 mM NaHCO3, 11.1 mM glucose, and 0.026 mM calcium disodium (ethylenedinitrilo)-tetraacetate. The vessels were then cleaned of adventitial tissue and cut into rings of approximately 5 mm lengths. When called for by the protocol, endothelium was removed from a ring by gently rubbing the luminal surface with a watchmaker's forceps. Vascular rings with intact endothelium were then suspended in organ chambers containing 25 ml of PSS at 37° aerated with 95% O2 -5% CO2. The rings were connected to force transducers (Grass FT03C, Quincy, Mass.) and changes in isometric force recorded continuously (Grass Polygraph Model 79B) over a period of 90 minutes. The optimal length-tension relationship was determined for each ring by observing the response to 10^-6 M norepinephrine after increments in tension of 0.5 gm. The functional integrity of the endothelium was assessed by contracting the vessel with 10^-6 M norepinephrine and then observing the response to 3×10^-7 M acetylcholine chloride.

[2] = system: bovine femoral artery, contraction to angiotensin II; assay: contraction of the bovine femoral artery to angiotensin II; details: for Contraction to Agonist: Angiotensin II, Sar 0 (control)
Method: The data are expressed as a percentage of the maximal response to norepinephrine (10^-4 M) and are shown as mean ±SEM in each group (n=6).
as §1

| Substance | Contraction to Agonist ([1]; -Log M 6) | Contraction to Agonist ([1]; -Log M 6.5) | Contraction to Agonist ([1]; -Log M 7) | Contraction to Agonist ([1]; -Log M 7.5) | Contraction to Agonist ([1]; -Log M 8) | Contraction to Agonist ([1]; -Log M 8.5) | Contraction to Agonist ([1]; -Log M 9) | maximum contraction response to angiotensin I ([1]; n=11) [g] | Contraction to Agonist ([2]; -Log M 6) | Contraction to Agonist ([2]; -Log M 6.5) | Contraction to Agonist ([2]; -Log M 7) | Contraction to Agonist ([2]; -Log M 7.5) | Contraction to Agonist ([2]; -Log M 8) | Contraction to Agonist ([2]; -Log M 8.5) | Contraction to Agonist ([2]; -Log M 9) | maximum contraction response to angiotensin II ([2]; n=6) [g] | EC50 ([2]; n=6, read-out: average ED50 of contraction to angiotensin II) [nM] | maximum response to angiotensin II ([2]; without S-nitrosocaptopril, n=5) |
| --- | --- | --- | --- | --- | --- | --- | --- | --- | --- | --- | --- | --- | --- | --- | --- | --- | --- | --- |
| angiotensin I: agonist; converted by ACE to angiotensin II by removal of the carboxy terminal His-Leu (DRVYIHPFHL; Angiotensin-1; UniProt P01019 25-34, looked up) | 45.3 ± 13.5 percentage of the maximal cont | 42.5 ± 13.4 percentage of the maximal cont | 38.6 ± 15.9 percentage of the maximal cont | 27.7 ± 12.7 percentage of the maximal cont | 12.6 ± 11.4 percentage of the maximal cont | 3.3 ± 5.9 percentage of the maximal cont | 0 percentage of the maximal cont | 4.4 ± 1.6 | – | – | – | – | – | – | – | – | – | – |
| angiotensin II: powerful pressor agent; agonist (DRVYIHPF; Angiotensin-2; UniProt P01019 25-32, looked up) | – | – | – | – | – | – | – | – | 57.9 ± 3.1 percentage of the maximal cont | 57.1 ± 3.1 percentage of the maximal cont | 47.2 ± 2.9 percentage of the maximal cont | 40.3 ± 2.6 percentage of the maximal cont | 28.8 ± 1.7 percentage of the maximal cont | 11.8 ± 1.1 percentage of the maximal cont | 0 percentage of the maximal cont | 6.4 ± 2.5 | 8.3 | 55.8±6.9 % of the maximal response to norepinephrine |
